According to ChEMBL document CHEMBL5257159, “Insights into targeting SARS-CoV-2: design, synthesis, in silico studies and antiviral evaluation of new dimethylxanthine derivatives” (RSC Med Chem, 2023):
pIC50: −log10 of the molar value.

Assays:
[1] = system: SARS-CoV-2; assay: Antiviral activity against SARS-CoV-2 NRC-03-nhCoV infected in african green monkey Vero E6 cells assessed as inhibition of virus-induced cytopathic effect measured after 72 hrs by crystal violet staining based assay; assay type: functional, organism-based; settings: Severe acute respiratory syndrome coronavirus 2, NRC-03-nhCoV, Vero C1008, 72 h
[2] = Cytotoxicity against African green monkey Vero E6 cells measured after 72 hrs by MTT assay; assay type: toxicity, cell-based, Vero C1008; settings: chlorocebus sabaeus
[3] = biological target: Replicase polyprotein 1ab (Severe acute respiratory syndrome coronavirus 2, UniProt P0DTD1); assay: Inhibition of recombinant SARS-CoV-2 main protease expressed in Escherichia coli BL21 using Dabcyl-EDANS and Boc-Abu-Tle-Leu-Gln-AMC as substrate
[4] = Selectivity index, ratio of CC50 for african green monkey Vero E6 cells to IC50 for antiviral activity against SARS-CoV-2 NRC-03-nhCoV infected in african green monkey Vero E6 cells; assay type: toxicity, Vero C1008; settings: read-out: Ratio CC50/IC50

Structure (SMILES) | pIC50 [1] | CC50 at 72 h [2] [µM] | pIC50 [3] | selectivity ratio [4]
CCC(CC)COC(=O)[C@H](C)N[P@](=O)(OC[C@H]1O[C@@](C#N)(c2ccc3c(N)ncnn23)[C@H](O)[C@@H]1O)Oc1ccccc1 | 5.00 | 608 | – | –
Cn1c(=O)c2c(nc3n(CC#Cc4ccc(Cl)c(Cl)c4)ccn23)n(C)c1=O | – | – | 5.33 | –
Cn1c(=O)c2c(nc3n2CC=C(O)N3c2ccc(S(N)(=O)=O)cc2)n(C)c1=O | 4.80 | 2040 | – | 127
